Reference: US4950662A, “2-oxa-isocephem compounds, compositions containing the same and processes for preparing the same” (Otsuka Pharmaceutical Co., Ltd., priority 1987, dated 1990)
≈ marks a conversion by molar mass, not a printed value. Where two headings read alike, the source gives them in different places.

Experiments:
[1] = system: S. aureus FDA-209-p; test: MIC by agar plate dilution method, S. aureus FDA-209-p; format: cell-based, Staphyloccocus aureus; conditions: Staphylococcus aureus, FDA209, inoculum 1 x 10^6 cells/ml
Protocol: (§1) In order to investigate the in vitro activity of the under-mentioned compounds against various bacteria, the minimal inhibitory concentration (MIC) values were determined by the agar plate dilution method [see Chemotherapy, 22, 1123-1128 (1974)].
(§2) Each test inoculum was adjusted to I x 10^6 cells/ml (O.D., 600m : 0.07-0.16).

[2] = system: E. coli NIHJ; test: MIC by agar plate dilution method, E. coli NIHJ; format: cell-based; conditions: Escherichia coli, inoculum 1 x 10^6 cells/ml
Protocol: as §1, §2

[3] = system: E. coli No. 29; test: MIC by agar plate dilution method, E. coli No. 29; format: cell-based; conditions: Escherichia coli, inoculum 1 x 10^6 cells/ml
Protocol: as §1, §2

[4] = system: K. pneumoniae NCTC-9632; test: MIC by agar plate dilution method, K. pneumoniae NCTC-9632; format: cell-based; conditions: Klebsiella pneumoniae, NCTC9632
Protocol: as §1, §2

[5] = system: P. mirabilis ATCC-29906; test: MIC by agar plate dilution method, P. mirabilis ATCC-29906; format: cell-based; conditions: Proteus mirabilis, ATCC29906, inoculum 1 x 10^6 cells/ml
Protocol: as §1, §2

[6] = system: M. morganii IIDKono; test: MIC by agar plate dilution method, M. morganii IIDKono; format: cell-based; conditions: Morganella morganii
Protocol: as §1, §2

[7] = system: S. marcescens ATCC-13880; test: MIC by agar plate dilution method, S. marcescens ATCC-13880; format: cell-based; conditions: Serratia marcescens, ATCC13880, inoculum 1 x 10^6 cells/ml
Protocol: as §1, §2

[8] = system: P. mirabilis 1287; test: MIC by agar plate dilution method, P. mirabilis 1287; format: cell-based; conditions: Proteus mirabilis, inoculum 1 x 10^6 cells/ml
Protocol: as §1, §2

[9] = system: M. morganii ATCC-25830; test: MIC by agar plate dilution method, M. morganii ATCC-25830; format: cell-based; conditions: Morganella morganii, ATCC25830
Protocol: as §1, §2

[10] = system: S. marcescens IFO-12648; test: MIC by agar plate dilution method, S. marcescens IFO-12648; format: cell-based; conditions: Serratia marcescens, IFO12648, inoculum 1 x 10^6 cells/ml
Protocol: as §1, §2

[11] = system: P. aeruginosa NCTC-10490; test: MIC by agar plate dilution method, P. aeruginosa NCTC-10490; format: cell-based; conditions: Pseudomonas aeruginosa, NCTC10490, inoculum 1 x 10^6 cells/ml
Protocol: as §1, §2

[12] = K. pneumoniae NCTC-9632, inoculum 1 x 10^6 cells/ml, read-out: MIC
[13] = M. morganii IIDKono, inoculum 1 x 10^6 cells/ml, read-out: MIC
[14] = M. morganii ATCC-25830, inoculum 1 x 10^6 cells/ml, read-out: MIC

SMILES | MIC [1] [µg/mL] | MIC [2] [µg/mL] | MIC [3] [µg/mL] | MIC [4, 12] [µg/mL] | MIC [5] [µg/mL] | MIC [6, 13] [µg/mL] | MIC [7] [µg/mL] | MIC [4] [µg/mL] | MIC [6] [µg/mL] | MIC [8] [µg/mL] | MIC [9] [µg/mL] | MIC [10] [µg/mL] | MIC [11] [µg/mL] | MIC [9, 14] [µg/mL]
CO/N=C(\C(=O)N[C@@H]1C(=O)N2C(C(=O)O)=C(CN3CCCC3)OC[C@H]12)c1csc(N)n1 [No. 1, (6S,7S)-7-[2-(2-aminothiazol-4-yI)-2-methoxyiminoacetamide]-3-(1-pyrolidinyl)methyl-Δ^3-0-2-isocephem-4-carboxylic acid (syn isomer)] | 1.56 (≈ 3.46 µM) | 0.1 (≈ 0.222 µM) | 0.1 (≈ 0.222 µM) | 0.2 (≈ 0.444 µM) | 0.2 (≈ 0.444 µM) | 0.2 (≈ 0.444 µM) | 0.39 (≈ 0.866 µM) | – | – | – | – | – | – | –
CO/N=C(\C(=O)N[C@@H]1C(=O)N2C(C(=O)[O-])=C(C[N+]3(C)CCCC3)OC[C@H]12)c1csc(N)n1 [No. 2, (6S,7S)-7-[2-(2-aminothiazol-4-yl)-2-methoxyiminoacetamide]-3-(I-methyl-1-pyrrolidinio)methyl-Δ^3-0-2-isocephem-4-carboxylate (syn isomer)] | 0.39 (≈ 0.84 µM) | 0.05 (≈ 0.108 µM) | 0.05 (≈ 0.108 µM) | – | 0.1 (≈ 0.215 µM) | 0.1 (≈ 0.215 µM) | 0.1 (≈ 0.215 µM) | 0.05 (≈ 0.108 µM) | – | – | – | – | – | –
CO/N=C(\C(=O)N[C@@H]1C(=O)N2C(C(=O)O)=C(CN3CCc4ccccc4C3)OC[C@H]12)c1csc(N)n1 [No. 3, (6S,7S}-7-[2-(2-aminothiazol-4-yl)-2-methoxyiminoacetamide]-3-(1,2,3,4-tetrahydroisoquinolyn-2-yl}methyl-Δ^3-0-2-isocephem-4-carboxylic acid (syn isomer)] | 0.39 (≈ 0.761 µM) | 0.05 (≈ 0.0976 µM) | 0.05 (≈ 0.0976 µM) | 0.1 (≈ 0.195 µM) | 0.1 (≈ 0.195 µM) | 0.2 (≈ 0.39 µM) | 0.39 (≈ 0.761 µM) | – | – | – | – | – | – | –
CO/N=C(\C(=O)N[C@@H]1C(=O)N2C(C(=O)[O-])=C(C[N+]3(C)CCc4ccccc4C3)OC[C@H]12)c1csc(N)n1 (stereo partly drawn) [No. 4, (6S,7S)-7-[2-(2-aminothiazol-4-Yl)-2-methoxyiminoacetamide]3-(2-methyl-2-1,2,3,4-tetrahydroisoquinoline-2-yl)methyl-Δ^3-0-2-isocephem-4-carboxylate (syn isomer)] | 0.78 (≈ 1.48 µM) | 0.1 (≈ 0.19 µM) | 0.05 (≈ 0.095 µM) | 0.2 (≈ 0.38 µM) | 0.2 (≈ 0.38 µM) | 0.1 (≈ 0.19 µM) | 0.2 (≈ 0.38 µM) | – | – | – | – | – | – | –
CO/N=C(\C(=O)N[C@@H]1C(=O)N2C(C(=O)[O-])=C(C[n+]3ccccc3)OC[C@H]12)c1csc(N)n1 [No. 5, (6S,7S)-7-[2-(2-aminothiazol-4-yl)-2-methoxyiminoacetamide]-3-[(1-pyridinio)methyl]-Δ^3-0-2-isocephem-4-carboxylate (syn isomer)] | 0.39 (≈ 0.851 µM) | 0.05 (≈ 0.109 µM) | 0.05 (≈ 0.109 µM) | – | 0.1 (≈ 0.218 µM) | – | 0.1 (≈ 0.218 µM) | 0.05 (≈ 0.109 µM) | 0.05 (≈ 0.109 µM) | – | – | – | – | –
CO/N=C(\C(=O)N[C@@H]1C(=O)N2C(C(=O)[O-])=C(C[n+]3ccc(SCC#N)cc3)OC[C@H]12)c1csc(N)n1 [No. 6, (6S,7S)-7-[2-(2-aminothiazol-4-yl}-2-methoxyiminoaoetamide]-3-[(4-cyanomethyIthio-1-pyridinio)methyl]-Δ^3-0-2-isocephem-4-carboxylate (syn isomer)] | 0.78 (≈ 1.47 µM) | ≤ 0.025 | ≤ 0.025 | ≤ 0.025 | ≤ 0.025 | ≤ 0.025 | 0.05 (≈ 0.0944 µM) | – | – | – | – | – | – | –
CO/N=C(\C(=O)N[C@@H]1C(=O)N2C(C(=O)[O-])=C(C[n+]3ccc(-c4cc[nH]n4)cc3)OC[C@H]12)c1csc(N)n1 [No. 7, (6S,7S}-7-[2-[2-aminothiazol-4-Yl}-2-methoxyiminoacetamide]-3-[[4-(3-pyrazolyl)-1-pyridinio]methyl]-Δ^3-0-2-isocephem-4-carboxylate (syn isomer)] | 0.2 (≈ 0.381 µM) | ≤ 0.025 | ≤ 0.025 | ≤ 0.025 | ≤ 0.025 | ≤ 0.025 | 0.1 (≈ 0.191 µM) | – | – | – | – | – | – | –
CC(C)O/N=C(\C(=O)N[C@@H]1C(=O)N2C(C(=O)[O-])=C(C[n+]3ccc(-c4cnco4)cc3)OC[C@H]12)c1csc(N)n1 [No. 8, (6S,7S)-7-[2-(2-aminothiazol-4-yl}-2-isopropyloxyiminoacetamide]-3-[[4-(5-oxazolyl)-1-pyridinio]methyl]-Δ^3-0-2-isocephem-4-carboxylate (syn isomer)] | 0.2 (≈ 0.361 µM) | 0.05 (≈ 0.0903 µM) | ≤ 0.05 | ≤ 0.025 | – | – | – | – | – | 0.05 (≈ 0.0903 µM) | 0.05 (≈ 0.0903 µM) | 0.2 (≈ 0.361 µM) | 25 (≈ 45.2 µM) | –
Nc1nc(/C(=N/OC2CCCC2)C(=O)N[C@@H]2C(=O)N3C(C(=O)[O-])=C(C[n+]4ccc(-c5cnco5)cc4)OC[C@H]23)cs1 [No. 9, (6S,7S}-7-[2-(2-aminothiazol-4-yl)-2-cyclopentyloxyiminoacetamide]-3-[[4-(5-oxazolyl)-1-pyridinio]methyl]-Δ^3-0-2-isocephem-4carboxylate (syn isomer)] | 0.1 (≈ 0.173 µM) | 0.1 (≈ 0.173 µM) | 0.05 (≈ 0.0863 µM) | ≤ 0.025 | – | – | – | – | – | 0.05 (≈ 0.0863 µM) | – | 0.2 (≈ 0.345 µM) | 12.5 (≈ 21.6 µM) | 0.1 (≈ 0.173 µM)
CC(C)O/N=C(\C(=O)N[C@@H]1C(=O)N2C(C(=O)[O-])=C(C[N+]3(C)CCCC3)OC[C@H]12)c1csc(N)n1 [No. 10, (6S,7S)-7-[2-(2-aminothiazol-4-yl)-2-(3-isopropyloxyiminoacetamide]-3-(1-methyl-1pyrrolidinio)methyl-^66 ^3-0-2-isocephem-4-carboxylate (syn isomer)] | 0.2 (≈ 0.406 µM) | 0.1 (≈ 0.203 µM) | 0.1 (≈ 0.203 µM) | 0.05 (≈ 0.102 µM) | – | – | – | – | – | 0.1 (≈ 0.203 µM) | – | 0.39 (≈ 0.792 µM) | 12.5 (≈ 25.4 µM) | 0.1 (≈ 0.203 µM)
C[N+]1(CC2=C(C(=O)[O-])N3C(=O)[C@@H](NC(=O)/C(=N\OC4CCCC4)c4csc(N)n4)[C@H]3CO2)CCCC1 [No. 11, (6S,7S)-7-[2-(2-aminothiazol-4-yl)-2-cyclopentyloxyiminoacetamide]-3-(I-methyl-1-pyrrolidinio]methyl-Δ^3-0-2-isocephem-4-carboxylate (syn isomer)] | 0.2 (≈ 0.386 µM) | 0.1 (≈ 0.193 µM) | 0.1 (≈ 0.193 µM) | 0.1 (≈ 0.193 µM) | – | – | – | – | – | 0.2 (≈ 0.386 µM) | – | 0.39 (≈ 0.752 µM) | 12.5 (≈ 24.1 µM) | 0.2 (≈ 0.386 µM)
CC(C)O/N=C(\C(=O)N[C@@H]1C(=O)N2C(C(=O)[O-])=C(C[n+]3cccc4c3CCC4)OC[C@H]12)c1csc(N)n1 [No. 12, (6S,7S}-7-[2-(2-amino&hiazol-4-Yl}-2-isopropyloxyiminoacetamide]-3-[(6,7-dihydro-5H-1-pyridinio)]methyl]-Δ^3-0-2-isocephem-4-carboxylate (syn isomer)] | 0.1 (≈ 0.19 µM) | 0.05 (≈ 0.095 µM) | ≤ 0.05 | ≤ 0.025 | – | – | – | – | – | 0.05 (≈ 0.095 µM) | – | 0.39 (≈ 0.741 µM) | 25 (≈ 47.5 µM) | 0.2 (≈ 0.38 µM)
C=CCO/N=C(\C(=O)N[C@@H]1C(=O)N2C(C(=O)[O-])=C(C[n+]3ccc(-c4cnco4)cc3)OC[C@H]12)c1csc(N)n1 [No. 13, (6S,7S}-7-[2-(2-aminothiazol-4-Yl)-2-allyloxyiminoacetamide]-3-[[4-[5-oxazolyl)-1-pyridinio]methyl]-Δ^3-0-2-isocephem-4-carboxylate (syn isomer)] | 0.1 (≈ 0.181 µM) | 0.05 (≈ 0.0907 µM) | 0.05 (≈ 0.0907 µM) | ≤ 0.025 | – | – | – | – | – | 0.1 (≈ 0.181 µM) | – | 0.2 (≈ 0.363 µM) | 12.5 (≈ 22.7 µM) | 0.2 (≈ 0.363 µM)
